Test results taken from US11178869B2, “Microbiocidal quinoline (thio)carboxamide derivatives” (priority 2017, dated 2021).
Where two headings read alike, the source gives them in different places.

Experiments:
[1] = system: Fusarium culmorum; experiment: whole plant or invertebrate; assay type: in vivo, Fusarium culmorum on wheat spikelets cv. Monsun; conditions: in Triticum aestivum, 144 h, read-out: control of Fusarium culmorum
[2] = system: Magnaporthe grisea (Pyricularia oryzae); experiment: microbe, parasite or virus in culture; assay type: cell-based; conditions: read-out: control of Magnaporthe grisea
[3] = system: Botryotinia fuckeliana (Botrytis cinerea); experiment: Botryotinia fuckeliana (Botrytis cinerea) / liquid culture (gray mould); assay type: cell-based; conditions: 72 h, read-out: disease control
[4] = system: Sclerotinia sclerotiorum; experiment: Sclerotinia sclerotiorum / liquid culture (cottony rot); conditions: read-out: control of Sclerotinia sclerotiorum
Method: Sclerotinia sclerotiorum/Liquid Culture (Cottony Rot)
Mycelia fragments of a newly grown liquid culture of the fungus are directly mixed into nutrient broth (Vogels broth). After placing a (DMSO) solution of test compound into a microtiter plate (96-well format) the nutrient broth containing the fungal material is added. The test plates are incubated at 24° C. and the inhibition of growth is determined photometrically 3-4 days after application.

[5] = system: Monographella nivalis (Microdochium nivale); experiment: Monographella nivalis (Microdochium nivale) / liquid culture (foot rot cereals); assay type: cell-based; conditions: read-out: disease control
[6] = system: Glomerella lagenarium (Colletotrichum lagenarium); experiment: Glomerella lagenarium (Colletotrichum lagenarium) / liquid culture (anthracnose); assay type: cell-based; conditions: Colletotrichum orbiculare, read-out: disease control
[7] = system: Fusarium culmorum; experiment: microbe, parasite or virus in culture; assay type: cell-based; conditions: read-out: disease control
[8] = system: Gaeumannomyces graminis; experiment: Gaeumannomyces graminis / liquid culture (take-all of cereals); assay type: cell-based; conditions: compared to untreated control, 4-5 days after application
[9] = 200 ppm, compared to untreated control, growth inhibition photometrically 3-4 days after application
[10] = 200 ppm, compared to untreated control, growth inhibition photometrically 4-5 days after application

| Compound | pest or weed control at 200 ppm [1] [%] | inhibition of growth at 20 ppm [2] [%] | inhibition of growth at 200 ppm [3, 9] [%] | inhibition of growth at 20 ppm [4] [%] | inhibition of growth at 200 ppm [5, 10] [%] | inhibition of growth at 200 ppm [6, 9] [%] | inhibition of growth at 200 ppm [7] [%] | inhibition of growth at 20 ppm [8] [%] | inhibition of growth at 200 ppm [3] [%] | melting point [°C] | inhibition of growth at 200 ppm [5] [%] | inhibition of growth at 200 ppm [6] [%] |
| --- | --- | --- | --- | --- | --- | --- | --- | --- | --- | --- | --- | --- |
| CC(C)[C@@](C)(C#Cc1ccccc1)NC(=O)c1cnc2c(F)cccc2c1 (single isomer, unassigned) [Compound G-7] | ≥ 80 | ≥ 80 | ≥ 80 | ≥ 80 | ≥ 80 | ≥ 80 | ≥ 80 | – | – | – | – | – |
| CC(C)[C@](C)(C#Cc1ccccc1)NC(=O)c1cnc2c(F)cccc2c1 (single isomer, unassigned) [Compound G-8] | – | ≥ 80 | ≥ 80 | – | ≥ 80 | ≥ 80 | ≥ 80 | ≥ 80 | – | – | – | – |
| CC(CC#CC1CC1)(CC(F)(F)F)NC(=O)c1cnc2c(F)cccc2c1 (stereo not shown) [Compound E-1, N-[4-cyclopropyl-1-methyl-1-(2,2,2-trifluoroethyl)but-3-ynyl]-8-fluoro-quinoline-3-carboxamide] | – | – | – | – | – | – | ≥ 80 | – | ≥ 80 | 110 to 112 | ≥ 80 | ≥ 80 |
| CC(C)C(C#Cc1ccccc1)NC(=O)c1cnc2c(F)cccc2c1 (stereo not shown) [Compound F-3, 8-fluoro-N-(1-isopropyl-3-phenyl-prop-2-ynyl)quinoline-3-carboxamide] | ≥ 80 | ≥ 80 | ≥ 80 | – | ≥ 80 | ≥ 80 | ≥ 80 | – | – | 156 to 158 | – | – |
| O=C(NC(C#Cc1ccccc1)CCC(F)(F)F)c1cnc2c(F)cccc2c1 (stereo not shown) [Compound F-4, 8-fluoro-N-[4,4,4-trifluoro-1-(2-phenylethynyl)butyl]quinoline-3-carboxamide] | – | ≥ 80 | ≥ 80 | – | ≥ 80 | – | ≥ 80 | ≥ 80 | – | – | – | – |
| CCC(C#Cc1ccccc1)(CC)NC(=O)c1cnc2c(F)cccc2c1 [Compound F-6, N-(1,1-diethyl-3-phenyl-prop-2-ynyl)-8-fluoro-quinoline-3-carboxamide] | – | – | ≥ 80 | – | ≥ 80 | ≥ 80 | ≥ 80 | ≥ 80 | – | – | – | – |
| CC(C)C(C)(C#Cc1ccccc1F)NC(=O)c1cnc2c(F)cccc2c1 (stereo not shown) [Compound F-12, 8-fluoro-N-[3-(2-fluorophenyl)-1-isopropyl-1-methyl-prop-2-ynyl]quinoline-3-carboxamide] | ≥ 80 | ≥ 80 | ≥ 80 | ≥ 80 | ≥ 80 | ≥ 80 | ≥ 80 | ≥ 80 | – | – | – | – |
| Cc1ccccc1C#CC(C)(NC(=O)c1cnc2c(F)cccc2c1)C(C)C (stereo not shown) [Compound F-13, 8-fluoro-N-[1-isopropyl-1-methyl-3-(o-tolyl)prop-2-ynyl]quinoline-3-carboxamide] | – | ≥ 80 | ≥ 80 | – | ≥ 80 | ≥ 80 | ≥ 80 | ≥ 80 | – | 138 to 141 | – | – |
| CCC(C)(C#Cc1ccccc1C)NC(=O)c1cnc2c(F)cccc2c1 (stereo not shown) [Compound F-15, N-[1-ethyl-1-methyl-3-(o-tolyl)prop-2-ynyl]-8-fluoro-quinoline-3-carboxamide] | – | ≥ 80 | ≥ 80 | ≥ 80 | ≥ 80 | ≥ 80 | ≥ 80 | – | – | 143 to 146 | – | – |
| COc1ccc(Cl)cc1C#CC(C)(C)NC(=O)c1cnc2c(F)cccc2c1 [Compound F-23, N-[3-(5-chloro-2-methoxy-phenyl)-1,1-dimethyl-prop-2-ynyl]-8-fluoro-quinoline-3-carboxamide] | – | – | ≥ 80 | – | ≥ 80 | ≥ 80 | ≥ 80 | ≥ 80 | – | – | – | – |
| Cc1ccc(F)cc1C#CC(C)(C)NC(=O)c1cnc2c(F)cccc2c1 [Compound F-24, 8-fluoro-N-[3-(5-fluoro-2-methyl-phenyl)-1,1-dimethyl-prop-2-ynyl]quinoline-3-carboxamide] | ≥ 80 | – | ≥ 80 | – | ≥ 80 | ≥ 80 | ≥ 80 | ≥ 80 | – | – | – | – |
| CC(C)(C#Cc1ccc(F)cc1F)NC(=O)c1cnc2c(F)cccc2c1 [Compound F-25, N-[3-(2,4-difluorophenyl)-1,1-dimethyl-prop-2-ynyl]-8-fluoro-quinoline-3-carboxamide] | ≥ 80 | – | ≥ 80 | – | ≥ 80 | ≥ 80 | ≥ 80 | ≥ 80 | – | – | – | – |
| CC(C)C(C)(C#Cc1ccccc1)NC(=O)c1cnc2c(F)cccc2c1 (stereo not shown) [Compound F-46, 8-fluoro-N-(1-isopropyl-1-methyl-3-phenyl-prop-2-ynyl)quinoline-3-carboxamide] | ≥ 80 | ≥ 80 | ≥ 80 | – | ≥ 80 | ≥ 80 | ≥ 80 | ≥ 80 | – | 118 to 122 | – | – |
| Cc1ccccc1C#CC(C)(C)NC(=O)c1cnc2c(F)cccc2c1 [Compound F-47, N-[1,1-dimethyl-3-(o-tolyl)prop-2-ynyl]-8-fluoro-quinoline-3-carboxamide] | ≥ 80 | ≥ 80 | ≥ 80 | – | ≥ 80 | ≥ 80 | ≥ 80 | ≥ 80 | – | 156 to 160 | – | – |
| CC(C)(C#Cc1cccc(C(F)(F)F)c1)NC(=O)c1cnc2c(F)cccc2c1 [Compound F-48, N-[1,1-dimethyl-3-[3-(trifluoromethyl)phenyl]prop-2-ynyl]-8-fluoro-quinoline-3-carboxamide] | – | ≥ 80 | ≥ 80 | – | ≥ 80 | ≥ 80 | ≥ 80 | ≥ 80 | – | 181 to 184 | – | – |
| CC(C)(C#Cc1ccccc1)NC(=O)c1cnc2ccccc2c1 [Compound F-49, N-(1,1-dimethyl-3-phenyl-prop-2-ynyl)quinoline-3-carboxamide] | ≥ 80 | ≥ 80 | ≥ 80 | – | ≥ 80 | ≥ 80 | ≥ 80 | ≥ 80 | – | 136 to 141 | – | – |
| Cc1nc2c(F)cccc2cc1C(=O)NC(C)(C)C#Cc1ccccc1 [Compound F-50, N-(1,1-dimethyl-3-phenyl-prop-2-ynyl)-8-fluoro-2-methyl-quinoline-3-carboxamide] | – | ≥ 80 | ≥ 80 | ≥ 80 | – | ≥ 80 | ≥ 80 | – | – | 118 to 123 | – | – |
| Cc1c(C(=O)NC(C)(C)C#Cc2ccccc2)cnc2c(F)cccc12 [Compound F-51, N-(1,1-dimethyl-3-phenyl-prop-2-ynyl)-8-fluoro-4-methyl-quinoline-3-carboxamide] | – | ≥ 80 | ≥ 80 | ≥ 80 | ≥ 80 | ≥ 80 | ≥ 80 | ≥ 80 | – | – | – | – |
| C#CC(C)(C)NC(=O)c1cnc2c(F)cccc2c1 [Compound F-54, N-(1,1-dimethylprop-2-ynyl)-8-fluoro-quinoline-3-carboxamide] | – | – | – | – | ≥ 80 | – | ≥ 80 | – | – | 148 to 150 | – | – |
| CC(C)C[C@H](C#Cc1ccccc1)NC(=O)c1cnc2c(F)cccc2c1 [Compound G-3, 8-fluoro-N-[(1R)-3-methyl-1-(2-phenylethynyl)butyl]quinoline-3-carboxamide] | – | ≥ 80 | ≥ 80 | – | ≥ 80 | ≥ 80 | ≥ 80 | ≥ 80 | – | – | – | – |
| CC(C)C[C@](C)(C#Cc1ccccc1)NC(=O)c1cnc2c(F)cccc2c1 [Compound G-6, N-[(1R)-1,3-dimethyl-1-(2-phenylethynyl)butyl]-8-fluoro-quinoline-3-carboxamide] | – | ≥ 80 | ≥ 80 | – | ≥ 80 | – | ≥ 80 | ≥ 80 | – | 128 to 130 | – | – |
